Reference: PubChem BioAssay AID248 (DTP/NCI, 2004)
Where “and” joins values, the source holds several entries; their conditions need not be identical. Equal values may be shown once. Toxic doses and inconclusive results are not listed.

Test system: L1210 leukemia ip in BDF1 mice, survival T/C
Assay: NCI In Vivo Anticancer Drug Screen. Data for tumor model L1210 Leukemia (intraperitoneal) in B6D2F1 (BDF1) mice
Conditions: endpoint: mean survival time, higher = longer survival
In short: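 Transplantable tumor model; survival measured in treated vs vehicle control mice. Value = treated/control.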

[1] = dose: 100.0 mg/kg/injection, schedule: Q04DX002 (ip), vehicle: Klucel (hydroxypropylcellulose) (HPC)
[2] = dose: 200.0 mg/kg/injection, schedule: Q04DX002 (ip), vehicle: Klucel (hydroxypropylcellulose) (HPC)
[3] = dose: 400.0 mg/kg/injection, schedule: Q04DX002 (ip), vehicle: Klucel (hydroxypropylcellulose) (HPC)
[4] = dose: 100.0 mg/kg/injection, schedule: Q01DX009 (ip), vehicle: Klucel (hydroxypropylcellulose) (HPC)
[5] = dose: 100.0 mg/kg/injection, schedule: Q04DX003 (ip), vehicle: Klucel (hydroxypropylcellulose) (HPC)
[6] = dose: 200.0 mg/kg/injection, schedule: Q01DX009 (ip), vehicle: Klucel (hydroxypropylcellulose) (HPC)
[7] = dose: 100.0 mg/kg/injection, schedule: Q01DX001 (ip), vehicle: carboxymethylcellulose (CMC)
[8] = dose: 200.0 mg/kg/injection, schedule: Q01DX001 (ip), vehicle: carboxymethylcellulose (CMC)
[9] = dose: 400.0 mg/kg/injection, schedule: Q01DX001 (ip), vehicle: carboxymethylcellulose (CMC)

With `CCCCCCCCCCCCCCCCCCNC(=O)NC(C)(C)C` the T/C [1] was 111 % of control, the T/C [2] was 100 % of control and the T/C [3] was 111 % of control.
For `CCOC(=O)CNC(=O)C(CSSCC(NC(=O)OCc1ccccc1)C(=O)NCC(=O)OCC)NC(=O)OCc1ccccc1` (centres undefined), the T/C (dose: 25.0 mg/kg/injection, schedule: Q04DX003 (ip), vehicle: Klucel (hydroxypropylcellulose) (HPC)) was 95 % of control, the T/C (dose: 50.0 mg/kg/injection, schedule: Q01DX009 (ip), vehicle: Klucel (hydroxypropylcellulose) (HPC)) was 100 % of control and the T/C (dose: 50.0 mg/kg/injection, schedule: Q04DX003 (ip), vehicle: Klucel (hydroxypropylcellulose) (HPC)) was 104 % of control. The T/C [4] was 103 % of control, the T/C [5] was 104 % of control and 90 % of control and the T/C [6] was 92 % of control.
With `COc1ccc([N+](=O)[O-])cc1NS(=O)(=O)c1ccc2ccccc2c1` the T/C [1] was 104 % of control, the T/C [2] was 100 % of control and the T/C [3] was 115 % of control.
`CC(C)(C)C#C/C(=N\Nc1ccc([N+](=O)[O-])cc1[N+](=O)[O-])c1ccccc1` was tested, and the T/C (dose: 50.0 mg/kg/injection, schedule: Q04DX002 (ip), vehicle: saline with Tween-80) was 89 % of control, the T/C (dose: 100.0 mg/kg/injection, schedule: Q04DX002 (ip), vehicle: saline with Tween-80) was 96 % of control and the T/C (dose: 400.0 mg/kg/injection, schedule: Q04DX002 (ip), vehicle: saline with Tween-80) was 86 % of control.
For `CC(=O)c1cccc(NC(=O)N2CCCCC2C)c1` (centres undefined), the T/C [4] was 111 % of control, the T/C [6] was 112 % of control and the T/C (dose: 400.0 mg/kg/injection, schedule: Q01DX009 (ip), vehicle: Klucel (hydroxypropylcellulose) (HPC)) was 103 % of control.
`O=[N+]([O-])c1ccc2c(c1)/C(=N\O)c1cc(Br)ccc1-2` was tested, and the T/C [7] was 105 % of control, the T/C [8] was 105 % of control and the T/C [9] was 94 % of control.
With `CCN=C(c1ccc(NC(=O)c2ccc(C(=O)Nc3ccc(C(=NCC)N(CC)C(=O)Nc4ccc(OCC)cc4)cc3)cc2)cc1)N(CC)C(=O)Nc1ccc(OCC)cc1` the T/C (dose: 3.75 mg/kg/injection, schedule: Q01DX015 (ip), vehicle: methylcellulose (MC)) was 122 % of control and the T/C (dose: 7.5 mg/kg/injection, schedule: Q01DX015 (ip), vehicle: methylcellulose (MC)) was 150 % of control.
In the case of `c1ccc(C([CH2][Hg][CH2]C(c2ccccc2)c2ccccc2)c2ccccc2)cc1`, the T/C (dose: 100.0 mg/kg/injection, schedule: Q01DX009 (ip), vehicle: saline) is reported as 101 % of control, the T/C [5] is reported as 97 % of control and the T/C (dose: 200.0 mg/kg/injection, schedule: Q01DX009 (ip), vehicle: saline) is reported as 96 % of control. The T/C (dose: 200.0 mg/kg/injection, schedule: Q04DX003 (ip), vehicle: Klucel (hydroxypropylcellulose) (HPC)) was 93 % of control, the T/C (dose: 400.0 mg/kg/injection, schedule: Q01DX009 (ip), vehicle: saline) was 101 % of control and the T/C (dose: 400.0 mg/kg/injection, schedule: Q04DX003 (ip), vehicle: Klucel (hydroxypropylcellulose) (HPC)) was 90 % of control.
For `CCC1(CCC(C)C)C(=O)NC(=S)N(C)C1=O` (centres undefined), the T/C (dose: 75.0 mg/kg/injection, schedule: Q01DX001 (ip), vehicle: carboxymethylcellulose (CMC)) was 89 % of control, the T/C (dose: 75.0 mg/kg/injection, schedule: Q01DX001 (ip), vehicle: other) was 97 % of control and the T/C (dose: 150.0 mg/kg/injection, schedule: Q01DX001 (ip), vehicle: carboxymethylcellulose (CMC)) was 89 % of control. For the same compound, the T/C (dose: 150.0 mg/kg/injection, schedule: Q01DX001 (ip), vehicle: other) was 103 % of control, the T/C (dose: 300.0 mg/kg/injection, schedule: Q01DX001 (ip), vehicle: carboxymethylcellulose (CMC)) was 91 % of control and the T/C (dose: 300.0 mg/kg/injection, schedule: Q01DX001 (ip), vehicle: other) was 121 % of control.
In the case of `O=C(O)c1cccc(SSc2cccc(C(=O)O)c2)c1`, the T/C [7] is reported as 94 % of control, the T/C [8] is reported as 100 % of control and the T/C [9] is reported as 102 % of control.
`Cc1cc(O)c(C(N)=O)c(=O)[nH]1` was tested, and the T/C (dose: 100.0 mg/kg/injection, schedule: Q01DX001 (ip), vehicle: saline) was 95 % of control, the T/C (dose: 200.0 mg/kg/injection, schedule: Q01DX001 (ip), vehicle: saline) was 98 % of control and the T/C (dose: 400.0 mg/kg/injection, schedule: Q01DX001 (ip), vehicle: saline) was 101 % of control.
For `N=C(N)N=Nc1ccc(NN=C(N)N)cc1`, the T/C (dose: 3.75 mg/kg/injection, schedule: Q01DX Z (ip), vehicle: saline) was 96 % of control, the T/C (dose: 7.5 mg/kg/injection, schedule: Q01DX Z (ip), vehicle: saline) was 103 % of control and the T/C (dose: 30.0 mg/kg/injection, schedule: Q01DX Z (ip), vehicle: saline) was 118 % of control. For the same compound, the T/C (dose: 60.0 mg/kg/injection, schedule: Q01DX Z (ip), vehicle: saline) was 98 % of control and 87 % of control.
`O=C(CCCNC(=O)OCc1ccccc1)NCCCCCCCCCCNC(=O)CCCNC(=O)OCc1ccccc1` was tested, and the T/C (dose: 10.0 mg/kg/injection, schedule: Q01DX012 (ip), vehicle: saline) was 102 % of control, the T/C (dose: 30.0 mg/kg/injection, schedule: Q01DX012 (ip), vehicle: saline) was 96 % of control and the T/C (dose: 100.0 mg/kg/injection, schedule: Q01DX012 (ip), vehicle: saline) was 90 % of control. The T/C (dose: 300.0 mg/kg/injection, schedule: Q01DX012 (ip), vehicle: saline) was 91 % of control.
